Experimental data published in the METLIN SMRT retention time set (Domingo-Almenara et al. 2019).

test: gradient 5% acetonitrile 3 min, to 50% in 2 min, to 85% in 15 min, held 3 min, 100 µL/min; details: column: Zorbax Extend-C18 2.1 x 50 mm; eluents: water / acetonitrile, 0.1% formic acid
Method in brief: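 Using water and acetonitrile that each contained 0.1% formic acid, mixtures of ~100 pure standards were separated at 100 μL/min on a Zorbax Extend-C18 column (2.1 × 50 mm, 1.8 μm). The HPLC fed a quadrupole time-of-flight mass spectrometer working in positive and negative ionization mode, with dead and dwell volumes of 40 μL and 900 μL. Data were acquired over 3 months. Retention time was read from computationally picked adduct peaks after manual inspection of each.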

Row | RP-LC retention time [s] | SMILES
1 | 727 | COC(=O)c1c(C)[nH]c(C(=O)N2CCC(CC(=O)NCc3ccc(F)cc3)CC2)c1C
2 | 1050 | Cc1ccc(CNC(=O)C2(C)CCN(S(=O)(=O)c3ccc(C)c(C)c3)CC2)cc1
3 | 883 | O=C(NCCc1csc(-c2ccccc2)n1)c1ccccc1C(F)(F)F
4 | 858 | Cc1nc2c(ccc3nc(NC(=O)c4ccc5c(c4)OCCO5)sc32)s1
5 | 866 | COc1ccc(OC)c(NS(=O)(=O)c2cc3c(s2)CCN(C(=O)C2CCC2)C3)c1
6 | 1260 | CCCN(C(=O)c1ccc2c(c1)OCO2)c1nc(-c2ccccc2)cs1
7 | 982 | COc1ccc(-c2noc(Cn3cnc4c(cnn4-c4ccc(OC)cc4)c3=O)n2)cc1
8 | 652 | Cc1cc2oc(C(=O)NCC(c3cccs3)N(C)C)cc(=O)c2cc1Cl (stereo not drawn)
9 | 1160 | CCCN(C(=O)CC(=O)OC)c1nc(-c2ccc(C)cc2)cs1
10 | 617 | CCC(=O)N1c2ccc(S(=O)(=O)CCC(=O)NCc3ccc(N(C)C)cc3)cc2CC1C (stereo not drawn)
11 | 1060 | CCNS(=O)(=O)c1cccnc1Nc1cc(C)cc(C)c1
12 | 1070 | O=C(NCC1OCCc2ccccc21)C(=O)Nc1ccc(Br)cc1 (stereo not drawn)
13 | 797 | O=C(NC1CC1)[C@@H]1C[C@H](Oc2ccccc2)CN1C(=O)COc1ccccc1
14 | 974 | CCCn1c(=O)sc2cc(S(=O)(=O)N3CCC(C(=O)Nc4ccc(F)cc4C)CC3)ccc21
15 | 1020 | Cc1cccc(NC(=O)N2CCCC2c2nc(-c3cccc(F)c3)no2)c1 (stereo not drawn)
16 | 995 | O=C1COc2ccccc2N1Cc1nc(-c2ccccc2Cl)no1
17 | 589 | O=c1oc2cc(S(=O)(=O)NCCO)ccc2c2ccc(S(=O)(=O)NCCO)cc12
18 | 674 | Cc1cccc(C(=O)Nc2c(-c3ccccc3)nc3cc(C)ccn23)c1
19 | 863 | Cc1ccc(NC(=O)Cn2c(=O)c(CCC(=O)NC3CCCC3)nc3ccccc32)cc1C
20 | 609 | c1nn2cnnc2cc1N1CCN(Cc2csc3c2CCCC3)CC1
21 | 850 | Cc1noc(-c2cccc(OC3CN(C(=O)NC4CCCC4)C3)c2)n1
22 | 657 | O=C(Nc1nc(CC(=O)N2CCn3c2nc2ccccc23)cs1)c1ccsc1

Row | RP-LC retention time [s] | SMILES
23 | 1120 | CCc1ccc2c(-c3cccc(Cl)c3)nc(=O)n(CC)c2n1
24 | 1000 | Cc1ccc(-c2nc3cnccn3c2Nc2ccc(Cl)cc2)cc1
25 | 690 | CCC(=O)N1CCc2cc(N3CC(C(=O)Nc4ccc(F)c(F)c4)CC3=O)ccc21 (stereo not drawn)
26 | 612 | O=c1c2ccc(O)cc2oc2cc(O)ccc12
27 | 780 | O=C(Cn1nc(C(=O)N2CCCC2)c2ccccc21)NCc1ccc(F)cc1
28 | 822 | COc1ccc(-c2cc(C(F)(F)F)n3ncc(C(=O)O)c3n2)cc1
29 | 756 | c1ccc(N2CCN(Cc3cccn3-c3nnc(N4CCOCC4)s3)CC2)nc1
30 | 1020 | COc1ccc(Cl)cc1NC(=O)N1CCCC(C)(C(=O)NCc2ccc(F)cc2)C1 (stereo not drawn)
31 | 684 | Cc1nc(N2CCN(Cc3ccc4c(c3)OCO4)CC2)nc2c1C(=O)CC(C)C2 (stereo not drawn)
32 | 1050 | Cc1ccc(NC(=O)C2CCN(S(=O)(=O)c3ccc4c(c3)sc(=O)n4C(C)C)CC2)cc1F
33 | 640 | CSc1cccc(NC(=O)C(=O)NCC(c2ccc3c(c2)CCCN3C)N2CCCC2)c1 (stereo not drawn)
34 | 950 | O=C(COc1ccc(F)cc1)N1CCCC1c1nc(-c2ccc(F)cc2F)no1 (stereo not drawn)
35 | 688 | CCN(CC)CCNC(=O)C1CCCN(c2ncc(-c3ccc(F)cc3)cn2)C1 (stereo not drawn)
36 | 1080 | COc1ccc(NC(=O)C2CCCN(c3nc4c(s3)c(C)nn4-c3ccc(OC)cc3)C2)cc1 (stereo not drawn)
37 | 583 | CN(C)C(=O)Cn1cnc2ccccc2c1=O
38 | 1390 | CCCOc1nc2ccccc2nc1N1CCCC(C(=O)Nc2cc(C)cc(C)c2)C1 (stereo not drawn)
39 | 664 | COc1ccc(-c2nc3cnccn3c2Nc2ccc(C(=O)N3CCOCC3)cc2)cc1
40 | 688 | CN(C)c1ccc(CNC(=O)c2nnc(-c3ccc(S(=O)(=O)N4CCCC4)cc3)o2)cc1
41 | 990 | Cc1ccc(S(=O)(=O)N2CC=C(c3cn(C)c4ncccc34)CC2)cc1
42 | 703 | COc1ccc(Cc2nnc(C3CCN(C(=O)c4ccco4)CC3)s2)cc1
43 | 632 | CCC1CN2C=NC(N3CCN(C(=O)c4ccc(C)s4)CC3)=CC2=N1 (stereo not drawn)
44 | 750 | O=C1CCCc2cc(S(=O)(=O)N3CCCC3C(=O)N3CCN(c4ccccc4)CC3)ccc2N1 (stereo not drawn)

Row | RP-LC retention time [s] | SMILES
45 | 1080 | O=S(=O)(c1ccc(Cl)cc1)N1CCc2nc(-c3ccccc3)ncc2C1
46 | 670 | Cc1cccc(-c2nnc(-c3nc(NCc4ccc(C)o4)c4ccccc4n3)o2)c1
47 | 688 | COCCNC(=O)N1CCCN(C2=NS(=O)(=O)C(c3ccc(C)cc3)=C2C)CC1
48 | 902 | COc1cc(NC(=O)C2CCN(S(=O)(=O)c3cc(-c4noc(C)n4)cs3)CC2)cc(OC)c1
49 | 1010 | CCOc1ccc(CCNC(=O)C2CCCN(S(=O)(=O)N3CCC(C)CC3)C2)cc1 (stereo not drawn)
50 | 860 | COc1ccc(CNC(=O)C2(C)Cc3ccccc3C(=O)N2Cc2ccco2)cc1 (stereo not drawn)
51 | 664 | O=C(N1CCC2(CC1)CC(CCOc1ccncc1)CCO2)C1(c2ccccc2)CC1 (stereo not drawn)
52 | 1010 | CCCc1noc(-c2nnn3c2COC(c2ccc(OC)cc2)C3)n1 (stereo not drawn)
53 | 595 | O=C(C1CCCN(Cc2nc(-c3cccnc3)no2)C1)N1CCc2ccccc21 (stereo not drawn)
54 | 790 | Cc1ccc(N2CCC(NC(=O)NCCc3ccccc3)C2=O)cc1C (stereo not drawn)
55 | 739 | CCc1cccc(NC(=O)N(C)CC2CCOC2)c1 (stereo not drawn)
56 | 654 | CCn1c(C(=O)NCCCN2CCCCC2C)c(N2CCCC2=O)c2cc(F)ccc21 (stereo not drawn)
57 | 728 | CCCn1cc(-c2nc(-c3ccncc3)no2)c(=O)c2cc(F)ccc21
58 | 944 | O=S(=O)(c1cccc(-c2cn3cc(Cl)ccc3n2)c1)N1CCCCCC1
59 | 1170 | CCOc1ccccc1NC(=O)N1CCc2nc(-c3ccc(Cl)cc3)ncc2C1
60 | 936 | CC(C)CNC(=O)c1ccc2c(c1)CCCN2S(=O)(=O)c1ccccc1
61 | 733 | CCc1ccccc1N1C(=O)c2c(C(=O)OC)ncn2CC1(C)C(=O)NC1CCCC1 (stereo not drawn)
62 | 567 | CCNC(=O)c1cc(N(C)C)nc2ccccc12
63 | 1040 | CC(=O)Oc1ccccc1C1=NN(C(C)=O)C(c2cccc(Br)c2)O1 (stereo not drawn)
64 | 707 | O=C(NCCn1nnc2cc(C(=O)N3CCCCC3)ccc21)NC1CCCCC1
65 | 768 | O=C(NCC1CN(c2ccc3c(c2)OCO3)C(=O)O1)Nc1ccccc1C(F)(F)F (stereo not drawn)
66 | 841 | COc1ccc(N2C(=O)C3N=NN(Cc4nc(-c5ccc(OC(C)C)cc5)no4)C3C2=O)cc1OC (stereo not drawn)

Row | RP-LC retention time [s] | SMILES
67 | 666 | CNC(=O)[C@@H]1C[C@H](Oc2ccccc2)CN1C(=O)c1ccoc1
68 | 592 | O=C(CSc1nc2ncccc2n2cccc12)N1CCN(c2ccccn2)CC1
69 | 823 | Cc1cc(Br)ccc1NC(=O)CCn1c(=O)oc2ccccc21
70 | 626 | O=C(c1ccc2nc[nH]c2c1)N1CCC(c2nc(-c3ccccc3)no2)C1 (stereo not drawn)
71 | 645 | COc1ccccc1-n1c(SCC(=O)Nc2nnc(C)s2)nc2c(c1=O)SCC2
72 | 900 | O=C(Cn1cc(S(=O)(=O)N2CCCCCC2)ccc1=O)N1CCCc2ccccc21
73 | 794 | O=C(CC1CCCCN1S(=O)(=O)c1ccccc1)NCCc1c[nH]c2ccccc12 (stereo not drawn)
74 | 891 | CC(C)NC(=O)c1ccc(OCC2CCN(C(=O)c3cc(F)ccc3Cl)CC2)cc1
75 | 1010 | COc1ccc(S(=O)(=O)N2CCCC(C(=O)N3CCN(c4ccccc4)CC3)C2)cc1Cl (stereo not drawn)
76 | 770 | O=C(Cn1ccn2nc(-c3ccc(F)cc3)c(CO)c2c1=O)NC1CCCC1
77 | 1120 | Cc1ccc(-c2cc3c(=O)n(Cc4noc(-c5ccc6c(c5)OCO6)n4)ccn3n2)c(C)c1
78 | 1250 | Cc1nc(-c2ccccc2)sc1C(=O)Nc1nc(-c2ccc(F)cc2)cs1
79 | 986 | CC(C)CNC(=O)N1CCN(c2nc3ccccc3n(Cc3ccccc3)c2=O)CC1
80 | 712 | CCN(CC)C(=O)N1CCCC1Cc1noc(-c2cccnc2)n1 (stereo not drawn)
81 | 803 | N#CC1=C(SCC(=O)NCc2ccccc2)NC(=O)CC1c1cccc([N+](=O)[O-])c1 (stereo not drawn)
82 | 596 | Cc1cccc(-c2ncccc2CNC(=O)c2ccco2)c1
83 | 757 | Cn1c(=O)c2c(NC(=O)c3ccco3)ccnc2n(C)c1=O
84 | 1140 | CCCn1c(=O)c(C)nc2cc(-c3noc(-c4cccc(OC)c4OC)n3)ccc21
85 | 609 | COc1ccc(C(CC(=O)NCCN2CCCC2)N2Cc3ccccc3C2=O)cc1OC (stereo not drawn)
86 | 887 | COC(=O)c1ccc2c(=O)n(-c3cccc(OC)c3)c(N3CCOCC3)nc2c1
87 | 722 | O=C(c1ccc2c(c1)OCO2)N1CCCCC1
88 | 997 | COc1cc(NC(=O)C2=Cc3cc(Br)ccc3OC2)cc(OC)c1OC
